“And” between values parts separate entries of the source, which are not always exact repeats. Equal values may be shown once. Read-outs that look alike come from different tables or passages of the source.
What was measured:
[1] = tested on: Alternaria alternate; test: in vitro-Test with fungal microorganisms, Method A (tables A1-A12); type: cell-based, Alternaria alternata; conditions: Alternaria, applied alone, read-out: Efficacy %
Summary of the method: (§1)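 Broth microdilution-type growth test in potato dextrose medium with spores or mycelium of the fungus, compound pre-dried from methanol/emulsifier. Efficacy from 620 nm extinction after 3-5 days at 20° C, scaled 0% (untreated growth) to 100% (no growth).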

[2] = tested on: Alternaria alternata; test: in vitro-Test with fungal microorganisms, Method B (tables A13-A22); type: cell-based
Summary of the method: (§2)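 Steps: solvent evaporation leaves the compound coating the wells; fungus-inoculated liquid growth medium goes on top; absorbance at 600 nm is measured; incubation runs 3 to 7 days at 20° C. with 85% relative humidity. Inhibition is then read photometrically and expressed as efficacy against untreated control.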

[3] = tested on: Botrytis cinerea; test: in vitro-Test with fungal microorganisms, Method A (tables B1-B14); type: cell-based; conditions: Botrytis cinerea, alone, read-out: Efficacy %
Summary of the method: as §1

[4] = tested on: Botrytis cinerea; test: in vitro-Test with fungal microorganisms, Method B (tables B15-B18); type: cell-based; conditions: Botrytis cinerea, alone, read-out: Efficacy %
Description: (§3) Example: In Vitro-Test with Fungal Microorganisms
(§4) Wells of 96-well microtiter plates are filled with 30 μl of a preparation of test compound or compound combination in methanol+emulsifier alkylaryl-polyglycol-ether. Thereafter, the solvent is evaporated in a hood. At the next step, 200 μl of liquid growth medium is given, that has been amended with an appropriate concentration of spores or mycelium suspension of the test fungus.
(§5) With the aid of a photometer, the extinction in all wells is measured at the wavelength of 600 nm.
(§6) The microtiter plates are incubated for 3 to 7 days at 20° C. and 85% relative humidity. After the incubation inhibition of growth is determined photometrically. Efficacy is calculated in relation to the untreated control, 0% efficacy means fungal growth as high as in untreated control while 100% efficacy means no fungal growth is measured.
(§7) The data in tables A1 to A12, B1 to B14, C1 to C10, D1 to D8, E1 to E8, F1 to F11, G1 to G4, H1 to H4 and I1 to I5 were collected according to Method A. The data in tables A13 to A22, B15 to B18, C11 to C20, E9 to E16, F12 to F15, G5 to G15, H5 to H8, I6 to I11 and J1 to J11 were collected according to Method B.

[5] = tested on: Cercospora beticola; test: in vitro-Test with fungal microorganisms, Method A (tables C1-C10); type: cell-based; conditions: Cercospora beticola, 0.4 ppm; read-out: Efficacy %
Summary of the method: as §1

[6] = tested on: Cercospora beticola; test: in vitro-Test with fungal microorganisms, Method B (tables C11-C20); type: cell-based
Summary of the method: as §2

[7] = tested on: Colletotrichum lindemuthianum; test: in vitro-Test with fungal microorganisms, Method A (tables D1-D8); type: cell-based; conditions: for inhibition of growth at 0.08 ppm / inhibition of growth at 0.4 ppm / inhibition of growth at 2 ppm / inhibition of growth at 10 ppm: Colletotrichum lindemuthianum, read-out: Efficacy %
Summary of the method: as §1

[8] = tested on: Cordana musae; test: in vitro-Test with fungal microorganisms, Method A (tables E1-E8); type: cell-based; conditions: single substance
Summary of the method: as §1

[9] = tested on: Cordana musae; test: in vitro-Test with fungal microorganisms, Method B (tables E9-E16); type: cell-based; conditions: single active
Summary of the method: as §2

[10] = tested on: Diaporthe citri; test: in vitro-Test with fungal microorganisms, Method A (tables F1-F11); type: cell-based
Summary of the method: as §1

[11] = tested on: Fusarium culmorum; test: in vitro-Test with fungal microorganisms, Method A (tables G1-G4); type: cell-based
Description: as §3
as §4, with “10” for “30”, “100” for “200”, “potato dextrose” for “growth”, “given into each well,” for “given,”
(§8) With the aid of a photometer, the extinction in all wells is measured at the wavelength of 620 nm.
as §6, with “incubated” for “incubated for 3 to 7 days”, “The” for “After the incubation”, “again photometrically 3-5 days after the application.” for “photometrically.”
as §7

[12] = tested on: Ustilago segetum var. avenae; test: in vitro-Test with fungal microorganisms, Method A (tables I1-I5); type: cell-based; conditions: alone, read-out: Efficacy %
Description: as §3
as §4, with “10” for “30”, “100” for “200”, “potato dextrose” for “growth”, “given into each well,” for “given,”
as §8
as §6, with “incubated” for “incubated for 3 to 7 days”, “The” for “After the incubation”, “again photometrically 3-5 days after the application.” for “photometrically.”
as §7

[13] = tested on: Ustilago segetum var. avenae; test: in vitro-Test with fungal microorganisms, Method B (tables I6-I11); type: cell-based
Summary of the method: as §2

[14] = tested on: Colletotrichum coccodes; test: in vitro-Test with fungal microorganisms, Method B (tables J1-J11); type: cell-based
Summary of the method: as §2

[15] = tested on: Diaporthe citri; test: in vitro-Test with fungal microorganisms, Method B (tables F12-F15); type: cell-based
Description: as §3, §4, §5, §6, §7

[16] = tested on: Fusarium culmorum; test: in vitro-Test with fungal microorganisms, Method B (tables G5-G15); type: cell-based; conditions: single active compound
Summary of the method: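 Compound in methanol plus alkylaryl-polyglycol-ether emulsifier dried in wells, then liquid medium containing Fusarium culmorum spores or mycelium added. Incubated 3-7 days at 20° C, 85% relative humidity; growth read at 600 nm. Efficacy relative to untreated control (0% equals control growth, 100% none).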

[17] = Alternaria alternata, read-out: Efficacy
[18] = Alternaria alternata, single compound, read-out: Efficacy
[19] = single active compound at 20 ppm
[20] = single active compound at 100 ppm

O=C1c2ccccc2C(=O)N1SC(Cl)(Cl)Cl [(5.012) folpet, folpet]
inhibition of growth at 2 ppm ([1]; 2.0 ppm): 100% | inhibition of growth at 10 ppm ([1]; 10.0 ppm): 100% | inhibition of growth at 0.2 ppm [2, 17]: 6% | inhibition of growth at 1 ppm [2, 17]: 99% | inhibition of growth at 0.008 ppm ([2]; Alternaria alternata, single compound, 0.008 ppm, read-out: Efficacy): 6% | inhibition of growth at 0.04 ppm ([2]; Alternaria alternata, single compound, 0.04 ppm, read-out: Efficacy): 3% | inhibition of growth at 0.2 ppm [2, 18]: 7% | inhibition of growth at 1 ppm [2, 18]: 83% | inhibition of growth at 2 ppm ([3]; 2.0 ppm): 100% | inhibition of growth at 10 ppm ([3]; 10.0 ppm): 100% | inhibition of growth at 0.008 ppm ([4]; 0.008 ppm): 8% | inhibition of growth at 0.04 ppm ([4]; 0.04 ppm): 1% | inhibition of growth at 1 ppm ([4]; 1 ppm): 16% | inhibition of growth at 0.4 ppm [5]: 50% | inhibition of growth at 0.008 ppm ([6]; Cercospora beticola, 0.008 ppm, read-out: Efficacy %): 7% | inhibition of growth at 1 ppm ([6]; Cercospora beticola, read-out: Efficacy %): 100% | inhibition of growth at 0.04 ppm ([6]; Cercospora beticola, single compound, 0.04 ppm, read-out: Efficacy %): 0% | inhibition of growth at 0.2 ppm ([6]; Cercospora beticola, single compound, 0.2 ppm, read-out: Efficacy %): 16% | inhibition of growth at 1 ppm ([6]; Cercospora beticola, single compound, read-out: Efficacy %): 86% | inhibition of growth at 0.08 ppm ([7]; mixing partner alone, 0.08 ppm): 0% | inhibition of growth at 0.4 ppm ([7]; mixing partner alone, 0.4 ppm): 0% | inhibition of growth at 2 ppm ([7]; mixing partner alone, 2.0 ppm): 100% | inhibition of growth at 10 ppm ([7]; mixing partner alone, 10.0 ppm): 100% | inhibition of growth at 0.08 ppm ([7]; single active at 0.08 ppm): 0% | inhibition of growth at 0.4 ppm ([7]; single active at 0.4 ppm): 13% | inhibition of growth at 2 ppm ([7]; single active at 2.0 ppm): 98% | inhibition of growth at 10 ppm ([7]; single active at 10.0 ppm): 100% | inhibition of growth at 0.08 ppm ([8]; Neocordana musae, 0.08 ppm, read-out: Efficacy %): 5% | inhibition of growth at 0.4 ppm ([8]; Neocordana musae, 0.4 ppm, read-out: Efficacy %): 10% | inhibition of growth at 2 ppm ([8]; Neocordana musae, 2.0 ppm, read-out: Efficacy %): 100% | inhibition of growth at 0.008 ppm ([9]; Neocordana musae, 0.008 ppm, read-out: Efficacy): 0% | inhibition of growth at 0.04 ppm ([9]; Neocordana musae, 0.04 ppm, read-out: Efficacy): 0% | inhibition of growth at 0.2 ppm ([9]; Neocordana musae, 0.2 ppm, read-out: Efficacy): 17% | inhibition of growth at 1 ppm ([9]; Neocordana musae, 1 ppm, read-out: Efficacy): 62% | inhibition of growth at 0.08 ppm ([10]; Diaporthe citri, Table F10, 0.08 ppm alone, read-out: Efficacy): 12% | inhibition of growth at 2 ppm ([10]; Diaporthe citri, Table F10, 2.0 ppm alone, read-out: Efficacy): 99% | inhibition of growth at 10 ppm ([10]; Diaporthe citri, Table F10, 10.0 ppm alone, read-out: Efficacy): 100% | inhibition of growth at 0.08 ppm ([10]; Diaporthe citri, applied alone, 0.08 ppm, read-out: Efficacy): 1% | inhibition of growth at 0.4 ppm ([10]; Diaporthe citri, applied alone, 0.4 ppm, read-out: Efficacy): 56% | inhibition of growth at 2 ppm ([10]; Diaporthe citri, applied alone, 2.0 ppm, read-out: Efficacy): 99% | Efficacy ([11]; 0.4 ppm alone): 0% | Efficacy ([11]; 10.0 ppm, alone): 100% | inhibition of growth at 0.08 ppm ([11]; Fusarium culmorum, 0.08 ppm, alone, read-out: Efficacy): 0% | inhibition of growth at 2 ppm ([11]; Fusarium culmorum, 2.0 ppm, alone, read-out: Efficacy): 100% | inhibition of growth at 0.4 ppm ([12]; 0.4 ppm): 15% | inhibition of growth at 2 ppm ([12]; 2.0 ppm): 100% | inhibition of growth at 10 ppm ([12]; 10.0 ppm): 100% | inhibition of growth at 1 ppm ([13]; 1 ppm, read-out: Efficacy %): 6% | inhibition of growth at 0.008 ppm ([14]; Colletotrichum coccodes, 0.008 ppm, read-out: Efficacy %): 1% | inhibition of growth at 0.04 ppm ([14]; Colletotrichum coccodes, 0.04 ppm, read-out: Efficacy %): 3% | inhibition of growth at 1 ppm ([14]; Colletotrichum coccodes, 1 ppm, read-out: Efficacy %): 66%

N#Cc1ccccc1NC(=O)c1snc(Cl)c1Cl [(6.002) isotianil, isotianil]
Efficacy ([2]; 4 ppm): 0% | Efficacy ([2]; 20 ppm): 0% | Efficacy ([2]; 100 ppm): 15% | Efficacy ([2]; single compound, 0.8 ppm): 0% | Efficacy ([2]; single compound, 20 ppm): 11% | Efficacy % ([6]; 4 ppm): 8% | Efficacy % ([6]; 20 ppm): 3% | Efficacy % ([6]; single compound, 100 ppm): 0% | Efficacy % ([7]; mixing partner alone, 0.8 ppm): 0% | Efficacy % ([7]; mixing partner alone, 4.0 ppm): 9% | Efficacy % ([7]; mixing partner alone, 20.0 ppm): 3% | Efficacy % ([7]; mixing partner alone, 100.0 ppm): 0% | Efficacy % ([8]; 0.8 ppm): 9% | Efficacy % ([8]; 4.0 ppm): 6% | Efficacy % ([8]; 20.0 ppm): 0% | Efficacy ([9]; 0.8 ppm): 9% | Efficacy ([9]; 4 ppm): 15% and 18% | Efficacy ([9]; 20 ppm): 10% and 18% | Efficacy ([9]; 100 ppm): 7% | Efficacy ([10]; Table F11, 0.8 ppm alone): 0% | Efficacy ([10]; Table F11, 4.0 ppm alone): 22% | Efficacy ([10]; Table F11, 20.0 ppm alone): 37% | Efficacy ([10]; Table F11, 100.0 ppm alone): 0% | Efficacy ([10]; applied alone, 0.8 ppm): 29% | Efficacy ([10]; applied alone, 4.0 ppm): 5% | Efficacy ([10]; applied alone, 20.0 ppm): 15% | Efficacy ([10]; applied alone, 100.0 ppm): 16% | Efficacy ([10]; single active, 0.8 ppm): 0% | Efficacy ([10]; single active, 4.0 ppm): 12% | Efficacy ([10]; single active, 20.0 ppm): 14% | Efficacy ([10]; single active, 100.0 ppm): 18% | Efficacy ([15]; Table F14, 0.8 ppm alone): 10% | Efficacy ([15]; Table F14, 4 ppm alone): 9% | Efficacy ([15]; Table F14, 20 ppm alone): 5% | Efficacy ([15]; Table F14, 100 ppm alone): 19% | Efficacy ([16]; 0.8 ppm): 7% | Efficacy ([16]; 4 ppm): 16% | Efficacy ([16]; 20 ppm): 14% | Efficacy ([16]; 100 ppm): 20% | Efficacy % [14, 19]: 0% | Efficacy % [14, 20]: 0%

CCO[PH](=O)[O-].CCO[PH](=O)[O-].CCO[PH](=O)[O-].[Al+3] [(15.012) fosetylal]
Efficacy ([15]; Table F12, 0.8 ppm alone): 13% | Efficacy ([15]; Table F12, 4 ppm alone): 7% | Efficacy ([16]; 4 ppm): 5% | Efficacy ([16]; 20 ppm): 11% | Efficacy ([16]; 100 ppm): 30% | Efficacy % ([13]; 0.8 ppm): 2% | Efficacy % ([13]; 20 ppm): 0% | Efficacy % ([14]; 0.8 ppm): 0% | Efficacy % ([14]; 4 ppm): 0% | Efficacy % ([14]; 20 ppm): 0% | Efficacy % ([14]; single active compound at 0.8 ppm): 27% | Efficacy % ([14]; single active compound at 4 ppm): 0% | Efficacy % [14, 19]: 2% | Efficacy % [14, 20]: 15%
